Source: patent US9518166B2, “Film forming auxiliary agent composition for emulsion resin” (ADEKA CORPORATION, priority 2013, dated 2016)

Tests used:
Assay type in all cases: physicochemical
Boiling point = experiment: Boiling point
[1] = Test 2: long-term stability test, resin 1; design: key: ⊚: homogeneous solution; ◯: no separation, but solution was partially heterogeneous (still can be used); Δ: slight separation was confirmed; X: complete separation or sedimentation was confirmed; settings: 5 mass % in resin 1, one week at 40° C.
Method: (§1) Inventive Products 1 to 14 and Comparative Products 1 to 11 were each compounded at 5 mass % with the test emulsion resins, 80 ml of each product obtained was introduced by 80 ml into a 100-ml screw pipe, closed with a lid and allowed to stay for a week in a thermostat at 40° C. The external appearance of the emulsion resins thereafter was determined according to the following criteria. • ⊚: homogeneous solution • ◯: no separation, but solution was partially heterogeneous (still can be used) • Δ: slight separation was confirmed • X: complete separation or sedimentation was confirmed <Test 3: Water Solubility Confirmation Test>

[2] = Test 2: long-term stability test, resin 2; design: key: ⊚: homogeneous solution; ◯: no separation, but solution was partially heterogeneous (still can be used); Δ: slight separation was confirmed; X: complete separation or sedimentation was confirmed; settings: 5 mass % in resin 2, one week at 40° C.
Method: as §1

CCCCOCCO [Comparative Product 10, butyl cellosolve]
boiling point (Boiling point): 171 °C | Test 2: long-term stability, external appearance [1]: ⊚ | Test 2: long-term stability, external appearance [2]: ⊚

CN1CCCC1=O [Comparative Product 11, N-methylpyrrolidone]
boiling point (Boiling point): 202 °C | Test 2: long-term stability, external appearance [1]: ⊚ | Test 2: long-term stability, external appearance [2]: ⊚
